Columns and labels:
Format in all cases: in vivo
[1] = test system: redroot pigweed (Amaranthus retroflexus, AMARE); assay: Pre-emerge test, greenhouse herbicide activity screening; settings: pre-emerge, rated 14 days after application, 0 = no damage, 100 = complete death
Procedure, shortened: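 Plants grown in 10 cm pots of sandy loam mix received acetone-dissolved compounds through a moving flat-fan nozzle. Doses ranged from 15 to 1000 g ai/ha. Pre-emerge pots were seeded one day earlier, post-emerge pots 8–21 days earlier. Fourteen days on, each pot was graded 0–100 for damage.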

[2] = test system: barnyardgrass (Echinochloa crus-galli, ECHCG); assay: as above; settings: pre-emerge, rated 14 days after application, 0 = no damage, 100 = complete death
Procedure, shortened: (§1)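 Fourteen days after spraying, crop and weed injury was graded visually from 0, no effect, to 100, every plant dead. Test substances were dissolved in acetone and applied at 15–1000 g ai/ha with a flat-fan nozzle. Application was either pre-emergence, one day after sowing, or post-emergence at the 2–3 leaf stage.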

[3] = test system: green foxtail (Setaria viridis, SETVI); assay: as above; settings: pre-emerge, rated 14 days after application, 0 = no damage, 100 = complete death
Procedure, shortened: as §1

[4] = test system: ivyleaf morningglory (Ipomoea hederacea, IPOHE); assay: as above; settings: pre-emerge, rated 14 days after application, 0 = no damage, 100 = complete death
Procedure, shortened: as §1

[5] = test system: johnsongrass (Sorghum halepense, SORHA); assay: as above; settings: pre-emerge, rated 14 days after application, 0 = no damage, 100 = complete death
Procedure, shortened: as §1

[6] = test system: lambsquarters (Chenopodium album, CHEAL); assay: as above; settings: pre-emerge, rated 14 days after application, 0 = no damage, 100 = complete death
Procedure, shortened: as §1

[7] = test system: large crabgrass (Digitaria sanguinalis, DIGSA); assay: as above; settings: pre-emerge, rated 14 days after application, 0 = no damage, 100 = complete death
Procedure, shortened: as §1

[8] = test system: sicklepod (Cassia obtusifolia, CASOB); assay: as above; settings: pre-emerge, rated 14 days after application, 0 = no damage, 100 = complete death
Procedure, shortened: as §1

[9] = test system: velvetleaf (Abutilon theophrasti, ABUTH); assay: as above; settings: pre-emerge, rated 14 days after application, 0 = no damage, 100 = complete death
Procedure, shortened: as §1

[10] = test system: field corn (Zea mays L., var. Dekalb 535, CORN); assay: Pre-emerge test, crop safety; settings: pre-emerge, rated 14 days after application, 0 = no damage, 100 = complete death
Procedure, shortened: as §1

[11] = test system: upland rice (Oryza sp., var. Tebonnet, RICE); assay: Pre-emerge test, crop safety; settings: pre-emerge, rated 14 days after application, 0 = no damage, 100 = complete death
Procedure, shortened: as §1

[12] = test system: barnyardgrass (Echinochloa crus-galli, ECHCG); assay: Post-emerge test, greenhouse herbicide activity screening; settings: phytotoxicity rating 0-100 (0 no damage, 100 complete death), 14 days after application
Procedure, shortened: (§2)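 Sandy loam pots; pre-emerge: sown 1 d pre-spray, surface-watered after, then bottom-watered. Post-emerge: sown 8–21 d before, 2–3 leaf stage, + 0.25% v/v NIS, bottom-watered. Acetone, 187 l/ha track spray, 15–1000 g ai/ha. 0–100 injury score, day 14.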

[13] = test system: green foxtail (Setaria viridis, SETVI); assay: as above; settings: phytotoxicity rating 0-100 (0 no damage, 100 complete death), 14 days after application
Procedure, shortened: as §2

[14] = test system: ivyleaf morningglory (Ipomoea hederacea, IPOHE); assay: as above; settings: phytotoxicity rating 0-100 (0 no damage, 100 complete death), 14 days after application
Procedure, shortened: as §2

[15] = test system: johnsongrass (Sorghum halepense, SORHA); assay: as above; settings: phytotoxicity rating 0-100 (0 no damage, 100 complete death), 14 days after application
Procedure, shortened: as §2

[16] = test system: lambsquarters (Chenopodium album, CHEAL); assay: as above; settings: phytotoxicity rating 0-100 (0 no damage, 100 complete death), 14 days after application
Procedure, shortened: as §2

[17] = test system: large crabgrass (Digitaria sanguinalis, DIGSA); assay: as above; settings: phytotoxicity rating 0-100 (0 no damage, 100 complete death), 14 days after application
Procedure, shortened: as §2

[18] = test system: redroot pigweed (Amaranthus retroflexus, AMARE); assay: as above; settings: phytotoxicity rating 0-100 (0 no damage, 100 complete death), 14 days after application
Procedure, shortened: as §2

[19] = test system: sicklepod (Cassia obtusifolia, CASOB); assay: as above; settings: phytotoxicity rating 0-100 (0 no damage, 100 complete death), 14 days after application
Procedure, shortened: as §2

[20] = test system: velvetleaf (Abutilon theophrasti, ABUTH); assay: as above; settings: phytotoxicity rating 0-100 (0 no damage, 100 complete death), 14 days after application
Procedure, shortened: as §2

[21] = test system: field corn (Zea mays L., var. Dekalb 535, CORN); assay: Post-emerge test, crop safety; settings: phytotoxicity rating 0-100 (0 no damage, 100 complete death), 14 days after application
Procedure, shortened: as §1

[22] = test system: upland rice (Oryza sp., var. Tebonnet, RICE); assay: Post-emerge test, crop safety; settings: phytotoxicity rating 0-100 (0 no damage, 100 complete death), 14 days after application
Procedure, shortened: as §1

C#CCOc1c(Cl)cc(F)c(-n2c(=O)cc(C(F)(F)F)n(C)c2=O)c1N [Compound 1-19]
Pre-emerge Herbicidal Activity AMARE (phytotoxicity rating, scale 0-100) ([1]; 63 g ai/ha): 95
Pre-emerge Herbicidal Activity AMARE (phytotoxicity rating, scale 0-100) ([1]; 250 g ai/ha): 100
Pre-emerge Herbicidal Activity ECHCG (phytotoxicity rating, scale 0-100) ([2]; 63 g ai/ha): 90
Pre-emerge Herbicidal Activity ECHCG (phytotoxicity rating, scale 0-100) ([2]; 250 g ai/ha): 100
Pre-emerge Herbicidal Activity SETVI (phytotoxicity rating, scale 0-100) ([3]; 63 g ai/ha): 100
Pre-emerge Herbicidal Activity SETVI (phytotoxicity rating, scale 0-100) ([3]; 250 g ai/ha): 100
Pre-emerge Herbicidal Activity IPOHE (phytotoxicity rating, scale 0-100) ([4]; 63 g ai/ha): 60
Pre-emerge Herbicidal Activity IPOHE (phytotoxicity rating, scale 0-100) ([4]; 250 g ai/ha): 100
Pre-emerge Herbicidal Activity SORHA (phytotoxicity rating, scale 0-100) ([5]; 63 g ai/ha): 90
Pre-emerge Herbicidal Activity SORHA (phytotoxicity rating, scale 0-100) ([5]; 250 g ai/ha): 100
Pre-emerge Herbicidal Activity CHEAL (phytotoxicity rating, scale 0-100) ([6]; 63 g ai/ha): 100
Pre-emerge Herbicidal Activity CHEAL (phytotoxicity rating, scale 0-100) ([6]; 250 g ai/ha): 100
Pre-emerge Herbicidal Activity DIGSA (phytotoxicity rating, scale 0-100) ([7]; 63 g ai/ha): 95
Pre-emerge Herbicidal Activity DIGSA (phytotoxicity rating, scale 0-100) ([7]; 250 g ai/ha): 100
Pre-emerge Herbicidal Activity CASOB (phytotoxicity rating, scale 0-100) ([8]; 63 g ai/ha): 90
Pre-emerge Herbicidal Activity CASOB (phytotoxicity rating, scale 0-100) ([8]; 250 g ai/ha): 100
Pre-emerge Herbicidal Activity ABUTH (phytotoxicity rating, scale 0-100) ([9]; 63 g ai/ha): 100
Pre-emerge Herbicidal Activity ABUTH (phytotoxicity rating, scale 0-100) ([9]; 250 g ai/ha): 100
Pre-emerge crop damage CORN (phytotoxicity rating, scale 0-100) ([10]; 63 g ai/ha): 50
Pre-emerge crop damage CORN (phytotoxicity rating, scale 0-100) ([10]; 250 g ai/ha): 80
Pre-emerge crop damage RICE (phytotoxicity rating, scale 0-100) ([11]; 63 g ai/ha): 80
Pre-emerge crop damage RICE (phytotoxicity rating, scale 0-100) ([11]; 250 g ai/ha): 95
Post-emerge Herbicidal Activity ECHCG ([12]; 63 g ai/ha): 0
Post-emerge Herbicidal Activity ECHCG ([12]; 250 g ai/ha): 80
Post-emerge Herbicidal Activity SETVI ([13]; 63 g ai/ha): 20
Post-emerge Herbicidal Activity SETVI ([13]; 250 g ai/ha): 95
Post-emerge Herbicidal Activity IPOHE ([14]; 63 g ai/ha): 30
Post-emerge Herbicidal Activity IPOHE ([14]; 250 g ai/ha): 95
Post-emerge Herbicidal Activity SORHA ([15]; 63 g ai/ha): 0
Post-emerge Herbicidal Activity SORHA ([15]; 250 g ai/ha): 70
Post-emerge Herbicidal Activity CHEAL ([16]; 63 g ai/ha): 30
Post-emerge Herbicidal Activity CHEAL ([16]; 250 g ai/ha): 90
Post-emerge Herbicidal Activity DIGSA ([17]; 63 g ai/ha): 0
Post-emerge Herbicidal Activity DIGSA ([17]; 250 g ai/ha): 10
Post-emerge Herbicidal Activity AMARE ([18]; 63 g ai/ha): 30
Post-emerge Herbicidal Activity AMARE ([18]; 250 g ai/ha): 70
Post-emerge Herbicidal Activity CASOB ([19]; 63 g ai/ha): 10
Post-emerge Herbicidal Activity CASOB ([19]; 250 g ai/ha): 30
Post-emerge Herbicidal Activity ABUTH ([20]; 63 g ai/ha): 100
Post-emerge Herbicidal Activity ABUTH ([20]; 250 g ai/ha): 100
Post-emerge Herbicidal Activity CORN (crop damage) ([21]; 63 g ai/ha): 5
Post-emerge Herbicidal Activity CORN (crop damage) ([21]; 250 g ai/ha): 45
Post-emerge Herbicidal Activity RICE (crop damage) ([22]; 63 g ai/ha): 25
Post-emerge Herbicidal Activity RICE (crop damage) ([22]; 250 g ai/ha): 80

— patent US6355799B1, “Substituted benzene compounds, process for their preparation, and herbicidal and defoliant compositions containing them” (ISK Americas Incorporated, priority 1997, dated 2002)
